Measured values published in patent US12146004B2, “Polymyxin compounds and uses thereof” (priority 2014, dated 2024).
≈ marks a conversion by molar mass, not a printed value. Bridge positions count the residues as written; N and C are the ends. Square brackets hold non-standard residues; d marks the D form. Peptide text beside a SMILES is read from it. * marks the point of attachment. ξ: configuration not given here. dBip = N[C@H](Cc1ccc(-c2ccccc2)cc1)C(=O)O; dPhe(4-Br) = N[C@H](Cc1ccc(Br)cc1)C(=O)O; Gly(octyl) = CCCCCCCC[C@H](N)C(=O)O; Octanoyl(6-Me) = CCC(C)CCCCC(=O)*; Thr(3ξ) = CC(O)[C@H](N)C(=O)O; X1 = CC(C)CN1CCNC[C@H]1C(=O)*; Octanoyl = CCCCCCCC(=O)*; Dab = NCC[C@H](N)C(=O)O; X6 = CCCCCCC(CCN)C(=O)*; Dap = NC[C@H](N)C(=O)O; X18 = CCCCC(CCN)C(=O)*

Experiments:
Type in all cases: cell-based
[1] = tested on: Escherichia coli
Method in brief: (§1)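 Strain panels of up to nine per species, with resistant and Polymyxin-tolerant strains included, were used for susceptibility testing; read-out was MIC (μg/mL).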

[2] = tested on: Klebsiella pneumoniae
Method in brief: as §1

[3] = tested on: Pseudomonas aeruginosa
Method in brief: as §1

[4] = tested on: Acinetobacter baumannii
Method in brief: as §1

[5] = tested on: Escherichia coli, Pseudomonas aeruginosa, Klebsiella pneumoniae and Acinetobacter baumannii; test: Susceptibility testing, comparisons in words across the Gram negative pathogens
Method: To evaluate the potency and spectrum of the compounds, susceptibility testing was performed against up to nine strains of each of the Gram negative pathogens, Escherichia coli, Pseudomonas aeruginosa, Klebsiella pneumoniae and Acinetobacter baumannii.

[6] = tested on: HK-2 cells
Excerpt: Values are reported relative to Polymyxin B.

| Compound | MIC E. coli 058 [1] [µg/mL] | MIC E. coli 059 [1] [µg/mL] | MIC E. coli 060 [1] [µg/mL] | MIC E. coli 061 [1] [µg/mL] | MIC E. coli ATCC 25922 [1] [µg/mL] | MIC K. pneumoniae 063 [2] [µg/mL] | MIC K. pneumoniae 064 [2] [µg/mL] | MIC K. pneumoniae 065 [2] [µg/mL] | MIC K. pneumoniae 066 [2] [µg/mL] | MIC K. pneumoniae 067 [2] [µg/mL] | MIC K. pneumoniae ATCC 4352 [2] [µg/mL] | MIC P. aeruginosa 068 [3] [µg/mL] | MIC P. aeruginosa 070 [3] [µg/mL] | MIC P. aeruginosa ATCC 27853 [3] [µg/mL] | MIC A. baumanii 053 [4] [µg/mL] | MIC A. baumanii 056 [4] [µg/mL] | MIC A. baumanii ATCC BAA-747 [4] [µg/mL] | HK-2 IC50 [6] [µg/mL] | MIC K. pneumoniae ATCC 13882 [2] [µg/mL] | MIC P. aeruginosa CCUG 59347 [3] [µg/mL] | also measured |
| --- | --- | --- | --- | --- | --- | --- | --- | --- | --- | --- | --- | --- | --- | --- | --- | --- | --- | --- | --- | --- | --- |
| CCC(C)CCCCC(=O)N[C@@H](CCN)C(=O)N[C@H](C(=O)N[C@@H](CCN)C(=O)N[C@H]1CCNC(=O)[C@H]([C@@H](C)O)NC(=O)[C@H](CCN)NC(=O)[C@H](CCN)NC(=O)[C@H](CC(C)C)NC(=O)[C@@H](Cc2ccc(Br)cc2)NC(=O)[C@H](CCN)NC1=O)C(C)O (stereo partly drawn) [Example 2, Polymyxin B[D-(4-bromoPhe)]-6]] ({Octanoyl(6-Me)}-[Dab][Thr(3ξ)][Dab][Dab][Dab][dPhe(4-Br)]L[Dab][Dab]T; lactam 4-C) | 2 (≈ 1.56 µM) | 1 (≈ 0.78 µM) | 2 (≈ 1.56 µM) | 4 (≈ 3.12 µM) | 2 (≈ 1.56 µM) | 16 (≈ 12.5 µM) | 2 (≈ 1.56 µM) | 0.5 (≈ 0.39 µM) | 4 (≈ 3.12 µM) | 16 (≈ 12.5 µM) | 1 (≈ 0.78 µM) | 2 (≈ 1.56 µM) | 4 (≈ 3.12 µM) | 1 (≈ 0.78 µM) | 16 (≈ 12.5 µM) | 4 (≈ 3.12 µM) | 2 (≈ 1.56 µM) |  |  |  | MIC K. pneumoniae 062 [2]: 8 µg/mL (≈ 6.24 µM); activity against polymyxin resistant strains ([5]; versus comparator compound): enhances activity against polymyxin resistant strains |
| CC(C)C[C@@H]1NC(=O)[C@@H](Cc2ccccc2)NC(=O)[C@H](CCN)NC(=O)[C@@H](NC(=O)[C@H](CN)NC(=O)[C@@H](NC(=O)[C@@H]2CNCCN2CC(C)C)C(C)O)CCNC(=O)[C@H]([C@@H](C)O)NC(=O)[C@H](CCN)NC(=O)[C@H](CCN)NC1=O (stereo partly drawn) [Example C2, (S)-1-isobutyl piperazine-2-carbonyl-L-Thr-L-Dap-polymyxin B heptapeptide, reference compound] (X1-[Thr(3ξ)][Dap][Dab][Dab][dF]L[Dab][Dab]T; lactam 3-C) | 8 (≈ 7.16 µM) | 16 (≈ 14.3 µM) | 8 (≈ 7.16 µM) | 32 (≈ 28.6 µM) | 0.25 (≈ 0.224 µM) | 128 (≈ 115 µM) | 32 (≈ 28.6 µM) | 16 (≈ 14.3 µM) | 32 (≈ 28.6 µM) | >256 | 0.125 (≈ 0.112 µM) | 32 (≈ 28.6 µM) |  | 0.5 (≈ 0.447 µM) | >256 | 256 (≈ 229 µM) | 0.25 (≈ 0.224 µM) | 316 |  |  |  |
| CCC(C)CCCCC(=O)N[C@@H](CCN)C(=O)N[C@H](C(=O)N[C@@H](CCN)C(=O)N[C@H]1CCNC(=O)[C@H]([C@@H](C)O)NC(=O)[C@H](CCN)NC(=O)[C@H](CCN)NC(=O)[C@H](CC(C)C)NC(=O)[C@@H](Cc2ccc(-c3ccccc3)cc2)NC(=O)[C@H](CCN)NC1=O)C(C)O (some centres unmarked) [Example C3, reference compound] ({Octanoyl(6-Me)}-[Dab][Thr(3ξ)][Dab][Dab][Dab][dBip]L[Dab][Dab]T; lactam 4-C) | 2 (≈ 1.56 µM) | 1 (≈ 0.781 µM) | 4 (≈ 3.13 µM) | 8 (≈ 6.25 µM) | 0.5 (≈ 0.391 µM) | 8 (≈ 6.25 µM) | 4 (≈ 3.13 µM) | 0.5 (≈ 0.391 µM) | 4 (≈ 3.13 µM) | 32 (≈ 25 µM) | 0.5 (≈ 0.391 µM) | 2 (≈ 1.56 µM) | 4 (≈ 3.13 µM) | 1 (≈ 0.781 µM) | 16 (≈ 12.5 µM) | 16 (≈ 12.5 µM) | 1 (≈ 0.781 µM) | 3 |  |  | MIC K. pneumoniae 062 [2]: 32 µg/mL (≈ 25 µM) |
| CCCCC(CCN)C(=O)N[C@H](C(=O)N[C@@H](CCN)C(=O)N[C@H]1CCNC(=O)[C@H]([C@@H](C)O)NC(=O)[C@H](CCN)NC(=O)[C@H](CCN)NC(=O)[C@H](CC(C)C)NC(=O)[C@@H](Cc2ccccc2)NC(=O)[C@H](CCN)NC1=O)C(C)O (some centres unmarked) [Example C4, 2-(2-Aminoethyl) hexanoyl polymyxin B nonapeptide, reference compound] (X18-[Thr(3ξ)][Dab][Dab][Dab][dF]L[Dab][Dab]T; lactam 3-C) | >64 |  |  |  | 1.0 (≈ 0.905 µM) |  |  | >64 |  |  | 0.25 (≈ 0.226 µM) |  |  | 1 (≈ 0.905 µM) |  |  | 1 (≈ 0.905 µM) |  | 1 (≈ 0.905 µM) | 2 (≈ 1.81 µM) | MIC A. baumanii NCTC 13424 [4]: 0.5 µg/mL (≈ 0.453 µM); activity [5]: only moderate activity |
| CCCCCCC(CCN)C(=O)N[C@H](C(=O)N[C@@H](CCN)C(=O)N[C@H]1CCNC(=O)[C@H]([C@@H](C)O)NC(=O)[C@H](CCN)NC(=O)[C@H](CCN)NC(=O)[C@H](CC(C)C)NC(=O)[C@@H](Cc2ccccc2)NC(=O)[C@H](CCN)NC1=O)C(C)O (some centres unmarked) [Example C5, 2-(2-Aminoethyl) octanoyl polymyxin B nonapeptide, reference compound] (X6-[Thr(3ξ)][Dab][Dab][Dab][dF]L[Dab][Dab]T; lactam 3-C) | 2 (≈ 1.77 µM) |  |  | 16 (≈ 14.1 µM) | 0.06 (≈ 0.053 µM) | 8 (≈ 7.06 µM) |  | 1 (≈ 0.883 µM) |  |  | 0.06 (≈ 0.053 µM) | 8 (≈ 7.06 µM) | 32 (≈ 28.3 µM) | 0.125 (≈ 0.11 µM) | >64 | 16 (≈ 14.1 µM) | 0.125 (≈ 0.11 µM) | 29 | 0.125 (≈ 0.11 µM) | 0.5 (≈ 0.442 µM) | MIC E. coli NCTC 9001 [1]: 0.03 µg/mL (≈ 0.0265 µM); MIC A. baumanii NCTC 13424 [4]: 0.25 µg/mL (≈ 0.221 µM) |
| CCCCCCCC[C@@H]1NC(=O)[C@@H](Cc2ccccc2)NC(=O)[C@H](CCN)NC(=O)[C@@H](NC(=O)[C@H](CCN)NC(=O)[C@@H](NC(=O)[C@H](CCN)NC(=O)CCCCCCC)[C@@H](C)O)CCNC(=O)[C@H]([C@@H](C)O)NC(=O)[C@H](CCN)NC(=O)[C@H](CCN)NC1=O [Example C7, octanoyl-Dab-Thr-Dab-Cy[Dab-Dab-D-Phe-L-OctGly-Dab-Dab-Thr], reference compound] (Octanoyl-[Dab]T[Dab][Dab][Dab][dF][Gly(octyl)][Dab][Dab]T; lactam 4-C) | 2 (≈ 1.61 µM) |  |  |  | 1 (≈ 0.803 µM) |  |  | 2 (≈ 1.61 µM) |  |  |  |  |  | 0.5 (≈ 0.401 µM) |  |  | 1 (≈ 0.803 µM) |  | 1 (≈ 0.803 µM) | 2 (≈ 1.61 µM) | MIC E. coli CA059 [1]: 2 µg/mL (≈ 1.61 µM); MIC E. coli CA060 [1]: 2 µg/mL (≈ 1.61 µM); MIC E. coli CA061 [1]: 4 µg/mL (≈ 3.21 µM); MIC K. pneumoniae CA062 [2]: 16 µg/mL (≈ 12.8 µM); MIC K. pneumoniae CA063 [2]: 8 µg/mL (≈ 6.42 µM); MIC K. pneumoniae CA064 [2]: 4 µg/mL (≈ 3.21 µM); MIC K. pneumoniae CA066 [2]: 2 µg/mL (≈ 1.61 µM); MIC K. pneumoniae CA067 [2]: 64 µg/mL (≈ 51.4 µM); MIC K. pneumoniae N655 [2]: 8 µg/mL (≈ 6.42 µM); MIC P. aeruginosa CA068 [3]: 4 µg/mL (≈ 3.21 µM); MIC P. aeruginosa CA070 [3]: 2 µg/mL (≈ 1.61 µM); MIC A. baumanii NCTC 13424 [4]: 1 µg/mL (≈ 0.803 µM); MIC A. baumannii CA053 [4]: 4 µg/mL (≈ 3.21 µM); MIC A. baumannii CA056 [4]: 4 µg/mL (≈ 3.21 µM); activity against polymyxin-susceptible strains ([5]; versus compounds in a more negative A Log P range): less active against polymyxin-susceptible strains |
